Series [1] concerns the target T1, FAM-Ahx-BID/MCL-1 complex (Homo sapiens, UniProt Q07820).
T1 construct: residues 172 – 327; His6-SUMO (N, cleaved yes); made in house; host or cells: E. coli BL21-Gold (pET28a)
The series can be described thus: Fluorescence anisotropy competition assay, FAM-Ahx-BID/MCL-1. The series is classed as binding. From the text: (1 picture or pasted object on this page, not shown here) […]

Series [2] is described as follows: CD thermal unfolding of individual components (peptide or protein alone). Particulars: CD at 222 nm, 5-85 °C, 20 °C/h; 25 μM in 20 mM phosphate, 100 mM NaCl, pH 7.4. The class given is physicochemical.
Description: CD spectroscopy was used to investigate the secondary structures and thermal stabilities of the designed peptides alone and in the presence of MCL-1.
prepared at 200 – 500 µM in deionized water from solid peptides) were diluted into phosphate
buffer (20 mM phosphate, 100 mM NaCl, pH 7.4) to a final concentration of 25 µM for individual
components, and at a 1:1 ratio (final concentration of all components set as 50 µM for
homomeric species and 75 µM for heterodimeric complex with MCL-1, or 1:1:1 ratio) of the
number of binding sites on the coiled-coil peptides to BH3 binding domain on the protein.
Wavelength spectra were collected (average of 5 scans, from 190 – 300 nm) to evaluate
secondary structure of the individual components and the peptide:protein complexes at 20 °C.
Thermal unfolding experiments monitored the α helical minima at 222 nm from 5 – 85 °C with
a heating ramp of 20 °C/h , and Tm was calculated from the mid -point of unfolding transitions.
A background spectrum of the buffer alone was also collected and subtracted from raw sample
ellipticity values during data conversion.
Data were collected on an APP Chirascan CD spectropolarimeter using 1 mm pathlength
quartz cuvettes. Raw ellipticity data w ere converted to mean residue ellipticity (MRE) using
MRE = (([θ]λ – [θ]0) x Mw) / (n x l x c) […]
curves, the fraction folded was calculated with the following equation […]

These results are taken from article PMC12186253, “Grafted Coiled-Coil Peptides as Multivalent Scaffolds for Protein Recognition” (ACS Chemical Biology, 2025).

T1 sequence (Q07820 172-327, one chain of several): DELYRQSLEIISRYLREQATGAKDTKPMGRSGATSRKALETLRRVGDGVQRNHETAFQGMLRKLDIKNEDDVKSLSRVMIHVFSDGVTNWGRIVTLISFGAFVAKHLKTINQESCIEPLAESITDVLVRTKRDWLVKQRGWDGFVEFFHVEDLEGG

By IC50 is commonly meant the concentration needed to halve the response being measured. Low readings indicate greater potency in that assay, high ones weaker potency in that assay. Turning to “Ac-GEILAIKQEILRIIGDNVAIKQEILNIKQGYG-NH2 [CC-Tri_E1]”, the IC50 in series [1] came out at 68 ± 16 µM.
As for “MCL-1: α-helix-binding antiapoptotic target protein, residues 172 – 327, expressed in E. coli”, in series [2], the “Tm (thermal unfolding midpoint), component alone” value was 62 °C.
For “Ac-GELLAIKQELLRIIGDLVAIKQELLNIKQGYG-NH2 [CC-Tet_E1]”, the IC50 in series [1] turned out to be 7.4 ± 0.8 µM.
Same read-out and setting: under “Ac-GEILALKQEILRLIGDNVALKQEILNLKQGYG-NH2 [CC-Di_E1]” stands 0.8 ± 0.1 µM.
